From PubChem BioAssay (NCI)
Where “and” joins values, the source holds several entries; their conditions need not be identical. Equal entries are not always repeated.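 The concentration for 50% growth inhibition is given as GI50. Definition used: TGI = concentration required for complete inhibition of growth.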

How the values were obtained:
Assay in all cases: inhibition of tumour cell growth, NCI panel, 384-well format
NCI-H226 lung = test system: NCI-H226 lung
NCI-H23 lung = test system: NCI-H23 lung
NCI-H322M lung = test system: NCI-H322M lung
NCI-H460 NSCLC = test system: NCI-H460 NSCLC
NCI-H522 lung = test system: NCI-H522 lung
NCI/ADR-RES ovarian = test system: NCI/ADR-RES ovarian
OVCAR-3 ovarian = test system: OVCAR-3 ovarian
OVCAR-4 ovarian = test system: OVCAR-4 ovarian
OVCAR-8 ovarian = test system: OVCAR-8 ovarian
PC-3 prostate = test system: PC-3 prostate
RPMI-8226 leukemia = test system: RPMI-8226 leukemia
RXF 393 renal = test system: RXF 393 renal
SF-268 CNS = test system: SF-268 CNS
SF-295 CNS = test system: SF-295 CNS
SF-539 CNS = test system: SF-539 CNS
SK-MEL-28 melanoma = test system: SK-MEL-28 melanoma
SK-MEL-5 melanoma = test system: SK-MEL-5 melanoma
SK-OV-3 ovarian = test system: SK-OV-3 ovarian
SN12C renal = test system: SN12C renal
SNB-19 CNS = test system: SNB-19 CNS
SNB-75 CNS = test system: SNB-75 CNS
SR leukemia = test system: SR leukemia
SW-620 colon = test system: SW-620 colon
T-47D breast = test system: T-47D breast
TK-10 renal = test system: TK-10 renal
U251 glioblastoma = test system: U251 glioblastoma
UACC-257 melanoma = test system: UACC-257 melanoma
UACC-62 melanoma = test system: UACC-62 melanoma
UO-31 renal = test system: UO-31 renal

## Cc1cc(C(=O)NC(CCC(=O)O)C(=O)O)sc1CCC1CNc2nc(N)[nH]c(=O)c2C1 (stereo not drawn)
NCI-H226 lung
  GI50: 24.2 nM and 25.8 nM
  TGI: 59.1 nM and 75.1 nM
NCI-H23 lung
  GI50: 29 nM and 150 nM
  TGI: 85.4 nM and 401 nM
NCI-H322M lung
  GI50: 17.8 nM and 20.2 nM
  TGI: 37 nM and 43.5 nM
NCI-H460 NSCLC
  GI50: < 10 nM and 10.9 nM
  TGI: > 100000 nM
NCI-H522 lung
  GI50: < 10 nM and 17.6 nM
  TGI: 18.7 nM and 34.3 nM
NCI/ADR-RES ovarian
  GI50: 19 nM and 17.5 nM
  TGI: 35.6 nM and 34 nM
OVCAR-3 ovarian
  GI50: 21.7 nM and 29 nM
  TGI: 53.9 nM and 82.6 nM
OVCAR-4 ovarian
  GI50: 20.5 nM and 22 nM
  TGI: 88.1 nM and 70.7 nM
OVCAR-8 ovarian
  GI50: < 10 nM
  TGI: < 10 nM and 11.6 nM
PC-3 prostate
  GI50: < 10 nM
  TGI: < 10 nM
RPMI-8226 leukemia
  GI50: 17.7 nM and 17.1 nM
  TGI: 35.4 nM and 36 nM
RXF 393 renal
  GI50: < 10 nM
  TGI: < 10 nM
SF-268 CNS
  GI50: < 10 nM
  TGI: < 10 nM and 18.7 nM
SF-295 CNS
  GI50: 18.4 nM and 18.6 nM
  TGI: 35.4 nM and 36.3 nM
SF-539 CNS
  GI50: < 10 nM
  TGI: < 10 nM and 20.5 nM
SK-MEL-28 melanoma
  GI50: 13.2 nM and 16.9 nM
  TGI: 29.6 nM and 34.7 nM
SK-MEL-5 melanoma
  GI50: 24.5 nM and 33.3 nM
  TGI: 91.6 nM and 202 nM
SK-OV-3 ovarian
  GI50: < 10 nM
  TGI: < 10 nM
SN12C renal
  GI50: < 10 nM
  TGI: < 10 nM and 23.4 nM
SNB-19 CNS
  GI50: < 10 nM and 13 nM
  TGI: < 10 nM and 30.1 nM
SNB-75 CNS
  GI50: < 10 nM
  TGI: < 10 nM and 14.3 nM
SR leukemia
  GI50: > 100000 nM
  TGI: > 100000 nM
SW-620 colon
  GI50: < 10 nM and 13.3 nM
  TGI: 21.1 nM and 35.6 nM
T-47D breast
  GI50: 23.8 nM and 30.3 nM
  TGI: > 100000 nM
TK-10 renal
  GI50: < 10 nM
  TGI: < 10 nM
U251 glioblastoma
  GI50: < 10 nM and 16.4 nM
  TGI: 22.9 nM and 33.5 nM
UACC-257 melanoma
  GI50: 12.9 nM and 18.3 nM
  TGI: 36.5 nM and 46.9 nM
UACC-62 melanoma
  GI50: 11.3 nM and 25.6 nM
  TGI: 59.4 nM and 75.1 nM
UO-31 renal
  GI50: < 10 nM and 18.7 nM
  TGI: < 10 nM and 39.1 nM
